The subject of assay [1] is mitogen-activated protein (MAP) kinases. The following applies: literature, Singh et al. (1999); cited from earlier work.
The test system of a further assay is Rap1. Briefly: Rap1 activation pull-down assay in PC12 cells. The following applies: for Effect on Rap1 activation induced by 17β-estradiol: 100 nM 17β-estradiol plus 1 μM tamoxifen. Type of assay: cell-based. The method, then: FIGS. 2A, 2B, 2C, 2D: 17β-estradiol elicits Rap1, but not Ras, activation in PC12 cells. Serum-starved PC12 cells were treated with 100 nM 17β-estradiol for the indicated time intervals. Activated Ras (A) and Rap1 (B) were precipitated from cell lysates and analyzed as described in the Materials and Methods. […] Tomaxifen itself has no effect on Rap1 activation in PC12 cells D.
Drug Screening Assays: These are used to identify GPR30 ligands that bind to and activate the GPR30 receptor. Drug screening identifies agents that enhance GPR30 activity. Of particular interest are screening assays for agents that have a low toxicity for human cells. In vitro or in vivo binding assays can be used to assess the extent to which a compound behaves as a specific ligand. Other assays are available to test for the activation of signaling pathways by ligand binding. One assay based on the finding that GPR30 activation results in the activation of the small GTPase Rap1, and of the other enzymes in the MAP kinase signaling pathway that is activated by Rap1. The assay for evaluating the activation of Rap1 examines the extent to which Rap1 is bound to GTP and employs a method as described by Herrmann et al. (1995) J. Biol. Chem 270:2901-2905. A wide variety of assays are available to assess the activation status of the enzymes downstream from Rap1. These include in vitro kinase assays for B-Raf, MEK, MAP kinase and Rsk (Cowley et al. (1994) Cell 77:841-852; Vossler et al. (1997) Cell 89:73-82). The activation of these proteins and some of their downstream targets (e.g. Elk-1 and CREB) may also be assessed through the use of antibodies to phosphorylated tyrosine or serine or threonine residues, which marks their active state (Payne et al. (1991) EMBO J. 10(4):885-892).
(§1) The reagents used in these studies were those specified in the original references to methods employed, unless otherwise specified. We used established cell culture methods for growing cells and for examining their morphological responses (Zhou et al. (1994) Proc. Natl. Acad. Sci USA 91(9):3824-3828). To examine gene expression for GPR30 and the classical ERs, standard methods were used to isolate mRNA and to analyze it by Northern blot and by RT-PCR (GIBCO-BRL, Bethesda, Md.). The activity of Rap1 and of Ras were assayed using pull-down assays with fusion proteins that bind specifically to the GTP-bound forms of these proteins, as described (Herrmann et al. (1995) J. Biol. Chem. 270:2901-2905). These fusion proteins were produced essentially as described by these authors. The activity of MAP kinase was determined by immunoblotting cell lysates with antibodies to phosphorylated MAP kinase (Payne et al. (1991) EMBO J. 10(4):885-892). The source of these antibodies was from New England Biolabs, Inc. (Beverley, Mass.).

The test system of another assay is Ras. Briefly: Ras activation pull-down assay in PC12 cells. Type of assay: cell-based. The following applies: serum-starved PC12 cells, 100 nM 17β-estradiol, indicated time intervals.
The next assay relates to Erk kinases (MAP kinase). The experiment in a line: Erk (MAP kinase) activation by immunoblot of PC12 cell lysates. The following applies: serum-starved PC12 cells, 100 nM 17β-estradiol, indicated time intervals. The format is cell-based. How it is done: as §1, with “As in FIG. 2, serum-starved PC12 cells were treated with 100 nM 17β-estraldiol for the indicated time intervals. Cells were-rinsed and lysed in RIPA buffer. Proteins were separated on SDS-PAGE, blotted onto PVDF membrane. The blot was probed for activated Erks (i.e activated MAP kinase) using rabbit IgGs against activated Erk kinases (UBI). The reagents” for “The reagents”
(In general: A western blot detects proteins with antibodies after separation by electrophoresis.)

The subject of a further assay is PC12 cells. Briefly: PC12 cell differentiation and survival in serum-free media. Type of assay: cell-based. The following applies: serum-free media with 100 nM 17β-estradiol, 6 days. The method, then:
as §1, with “PC12 cells were maintained in either serum-free media (A) or serum-free media supplemented with 100 nM 17β-estradiol (B) for 6 days. Cells were monitored with phase-contrast microscope and typical images were captured using a CCD camera. Differentiated PC12 cells (arrows) can be observed with 17β-estradiol treatment (B), whereas massive cell death occurred in the control (A). The reagents” for “The reagents”, “J. 10(4):885-892). […]” for “J. 10(4):885-892). The source of these antibodies was from New England Biolabs, Inc. (Beverley, Mass.).”

Assay [2] has as its system 145 kDa intermediate neurofilament. Briefly: 145 kDa intermediate neurofilament expression in PC12 cells (immunoblot). Type of assay: cell-based. The following applies: serum-free media, 3 days. An excerpt: FIG. 5: Induction of the 145 kDa intermediate neurofilament expression by 17β-estradioi in PC12 cells. PC12 cells were maintained in either serum-free media supplemented with either NGF or 17β-estradiol at the indicated concentrations for 3 days. Treated as well as control cells were lysed in RIPA buffer and the lysates were separated on SDS-PAGE, transferred onto PVDF membrane. The blot was probed with specific antibodies against the 145 kDa intermediate neurofilament.

Entries after “also recorded” stand apart in the source; their conditions may differ.

Protocol for Ras: Serum-starved PC12 cells were treated with 100 nM 17β-estradiol for the indicated time intervals. Activated Ras (A) and Rap1 (B) were precipitated from cell lysates and analyzed as described in the Materials and Methods. […] The activity of Rap1 and of Ras were assayed using pull-down assays with fusion proteins that bind specifically to the GTP-bound forms of these proteins, as described (Herrmann et al. (1995) J. Biol. Chem. 270:2901-2905). These fusion proteins were produced essentially as described by these authors.

For 17β-estradiol, the “Tyrosine phosphorylation/activation of MAP kinases” value in assay [1] is “elicited rapid tyrosine phosphorylation/activation”.

For `COc1cccc(-c2cc(=O)c3ccccc3o2)c1N` [PD98059], the “Inhibition of estradiol-elicited extracellular signal-regulated protein kinase activation” value in assay [1] is “inhibited successfully”.

`CC/C(=C(\c1ccccc1)c1ccc(OCCN(C)C)cc1)c1ccccc1` [tamoxifen]: the “Effect on Rap1 activation induced by 17β-estradiol” value in the assay with Rap1 (PC12 cells) is on record as “blocked the response”; in the assay with Rap1 (PC12 cells, listed as tomaxifen) it was “can be blocked”. In addition, in the assay with Rap1 (PC12 cells, tamoxifen alone), the “Rap1 activation by the substance alone” value is recorded as “no effect”.

As for `C[C@]12CC[C@@H]3c4ccc(O)cc4CC[C@H]3[C@@H]1CC[C@@H]2O` [17β-estradiol], the “Activation of Rap1 during the first 10 minutes of treatment” value with Rap1 (PC12 cells, first 10 minutes) is given as “little effect”. For the same compound, the “Activation of Rap1 at later times” value in the assay on Rap1 (PC12 cells, later than 10 minutes) is recorded as “marked effect”. The Rap1 activation result in the assay with Rap1 (serum-starved PC12 cells, 100 nM 17β-estradiol, indicated time intervals) is recorded as “induces Rap1 activation; also recorded: activated Rap1”. For the same compound, the Ras activation result in the assay with Ras is “no detectable Ras activation and not”. Further, in the assay with Erk kinases (MAP kinase), the “Erk / MAP kinase activation (pERK)” value is recorded as “induces prolonged Erk activation; also recorded: induced sustained activation”. Also, in the assay with PC12 cells, the “PC12 cell differentiation (neurite outgrowth)” value is reported as “induces PC12 cell differentiation; also recorded: induced the outgrowth of long neurites” and the “PC12 cell survival under serum free culture” value is on record as “prevented these cells from dying”. Further, the “Expression of the 145 kDa intermediate neurofilament protein” value in assay [2] is reported as “Induction; also recorded: increasing the level of expression”.

With `C[C@]12CC[C@@H]3c4ccc(O)cc4C[C@@H](CCCCCCCCC[S+]([O-])CCCC(F)(F)C(F)(F)F)[C@H]3[C@@H]1CC[C@@H]2O` (some centres unmarked) [ICI 182,780], in assay [1], the “Inhibition of estradiol-elicited extracellular signal-regulated protein kinase activation” value was “not”.

These data come from US6444420B2, “Use of GPR30 receptor ligands to mediate neurotrophic action” (The Board of Trustees of the Leland Stanford Junior …, priority 1999, dated 2002).
